Tested on: MOG-induced chronic EAE in C57BL/6 mice
Assay type: in vivo
Excerpt: The effect of the two formulations on MOG (myelin-oligodendrocyte-glycoprotein)-induced chronic EAE in C57BL/6 mice was examined according to the procedure described below.
Forty (40) female C57BL/6 mice had been randomly grouped into three (3) groups by body weight in this study; each group consisted of ten (10) mice. […] EAE had been induced by injection of emulsion of MOG subcutaneously on the shaved back of the mouse at three sites, followed by an intraperitoneal injection of Bordetella pertussis toxin in PBS on Day 0 and 48 hours post MOG immunization. EAE had been assessed by clinical scoring of the mice once daily from Day 0 to Day 14 post immunization. […] On Day 14, mice had been terminated.
After anesthetization by isoflurane (2-3%, inhalation), EAE had been induced by injecting 100 μL emulsion subcutaneously into the shaved backs of the mice. Bordetella pertussis toxin (200 ng in 200 μL of PBS) had been administered i.p. on the day of immunization (Day 0) and 48 hours thereafter. […]
Body weight of all mice had been recorded daily starting from Day 0 to Day 14. EAE development had been assessed by clinically scoring of the mice once daily from Day 0 to Day 14 post immunization according to a scale of 0-5 (0=normal mouse; 1=limp tail or hind limb weakness; 2=limp tail and hind limb weakness; 3=partial hind limb paralysis; 4=complete hind limb paralysis; and 5=moribund state). […]

## L-glutamic acid polymer with L-alanine, L-lysine and L-tyrosine, acetate (salt) [GA]
Clinical score scale 0-5, days 0-14, 5 mg GA/mice/day i.m. on day 0 and day 1
  Maximum score: 0.5 ± 0.31
Days 0-14, 5 mg GA/mice/day i.m. on day 0 and day 1
  Disease duration: 0.5 ± 0.31
